Patent US20200087258A1, “INHIBITOR OF CITRATE TRANSPORTER AND THEIR USE IN THERAPY” (Eternygen GmbH, priority 2017, published 2020)
pIC50: −log10 of the molar value.

Biological target: T1, GLUT1 (Homo sapiens, UniProt P11166)
T1 construct: Huh-7 cells which endogenously express GLUT1; endogenous in cells; host or cells: Huh-7
T1 sequence (P11166 1-492): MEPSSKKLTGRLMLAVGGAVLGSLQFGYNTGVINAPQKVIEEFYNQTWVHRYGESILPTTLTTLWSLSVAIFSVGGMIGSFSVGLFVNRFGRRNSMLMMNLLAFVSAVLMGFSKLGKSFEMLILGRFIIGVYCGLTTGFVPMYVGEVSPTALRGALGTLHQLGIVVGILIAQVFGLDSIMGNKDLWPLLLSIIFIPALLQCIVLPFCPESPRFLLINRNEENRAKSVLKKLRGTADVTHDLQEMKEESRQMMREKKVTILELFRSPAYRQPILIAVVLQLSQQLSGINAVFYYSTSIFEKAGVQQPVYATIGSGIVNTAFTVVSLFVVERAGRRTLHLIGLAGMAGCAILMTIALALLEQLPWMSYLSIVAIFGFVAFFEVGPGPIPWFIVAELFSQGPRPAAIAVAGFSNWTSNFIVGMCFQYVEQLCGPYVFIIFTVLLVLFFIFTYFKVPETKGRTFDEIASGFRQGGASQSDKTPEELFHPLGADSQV
Test: 3H-glucose uptake counter assay in Huh7 cells endogenously expressing GLUT1
Assay type: cell-based
Conditions: endogenous GLUT1
Protocol: The compound was obtained by screening of a library containing more than 50,000 lead-like compounds and fragments. The library was tested using a functional citrate uptake assay with HEK293 cells overexpressing recombinant human INDY. The following hit confirmation was conducted in the same assay system. To confirm the activity of selected compounds on the target INDY another cell assay was conducted. In this assay system citrate uptake was measured using HepG2 cells which endogenously express INDY. Furthermore selectivity of selected compounds was tested for two other transporters in different assay systems. The first transporter was the glutamate transporter GLT-1 tested in a glutamate uptake assays using HEK293 cells overexpressing recombinant human GLT-1. The second transporter was the glucose transporter GLUT1 tested in a glucose uptake assay using Huh-7 cells which endogenously express GLUT1. Compounds were considered to be selective with an at least 5-fold higher activity for INDY than for the other two transporters.
Cells were maintained in cell medium using cell culture grade flasks (CellSTACK Corning, 500 cm2 dishes or T175 depending on cell number). The selection antibiotic and G418 (800 μg/ml) was added during cultivation but not for seeding into assay plates. For splitting, cells were washed with PBS (w/o Ca2+, Mg2+, phenol red) and detached with Trypsin/EDTA. Throughout cultivation cells were kept sub-confluent. Detached cells (50,000 cells/well) were seeded in 96-well plates (white, clear bottom from Corning #655098) and incubated over night before usage in the assay. The following media were used. For HEK293 cells expressing INDY MEM (PAA)+10% FCS+1×P/S+2 mM L-Gln; for HEK293 cells expressing GLT-1 DMEM (Gibco)+10% FCS+400 µg/ml G418; for Huh7 cells DMEM (Gibco)+10% FCS+2 mM L-Gin (+1×P/S); for HepG2 cells MEM (PAA, Cat # E15-024)+10% FCS+2 mM L-Gin+1×NEAA+1 mM Na-Pyruvat […]
Glucose uptake in Huh7 cells was measured as a counter assay. […] After 20 min incubation at RT plates were measured using TopCount system, Perkin Elmer. […]

pIC50: < 4.30
SMILES: O=C(NCc1ccccc1F)C1CCN(S(=O)(=O)/C=C/c2ccccc2)CC1 [Example 5]
